Reference: article PMC9704406 (Virulence, 2022)

Tested on: Smh1
Format: biochemical, Legionella pneumophila
Details: 50 µM TSA, 30 min preincubation; enzyme 156.25 ng/ml; inhibitor

CC(/C=C/C(=O)NO)=C\[C@@H](C)C(=O)c1ccc(N(C)C)cc1 [Trichostatin A]
HDAC-Glo I/II luminescence assay: TSA significantly reduced Smh1 HDAC activity in comparison to Smh1 alone
